According to PubChem BioAssay AID2060492 (Molecular Pharmacology Branch, DTP, NCI, 2025):
One block for each compound: values may come before it.

System: 695427-040-R-J1-PDC complex spheroids, viability percent T/C
Test: Anticancer human tumor 695427-040-R-J1-PDC patient-derived colon adenocarcinoma cell line growth inhibition [GQUAD]
Settings: for IC50: curve of first compound; for viability, T/C: stronger effect = lower value
Outline: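 Multi-cell-type spheroids of tumor cells with HUVEC and mesenchymal stem cells, treated with drug combinations. Concentrations descend in half-log steps from near clinical Cmax, or from 10 microM where Cmax is unknown; viability read-out.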

[1] = second compound 0.0316 µM, first compound 0.0316 µM
[2] = second compound 0.0316 µM, first compound 0.1 µM
[3] = second compound 0.0316 µM, first compound 0.316 µM
[4] = second compound 0.0316 µM, first compound 1 µM
[5] = second compound 0.0316 µM, first compound 3.16 µM
[6] = second compound 0.0316 µM, first compound 10 µM
[7] = second compound 0.1 µM, first compound 0.0316 µM
[8] = second compound 0.1 µM, first compound 0.1 µM
[9] = second compound 0.1 µM, first compound 0.316 µM
[10] = second compound 0.1 µM, first compound 1 µM
[11] = second compound 0.1 µM, first compound 3.16 µM
[12] = second compound 0.1 µM, first compound 10 µM
[13] = second compound 0.316 µM, first compound 0.0316 µM
[14] = second compound 0.316 µM, first compound 0.1 µM
[15] = second compound 0.316 µM, first compound 0.316 µM
[16] = second compound 0.316 µM, first compound 1 µM
[17] = second compound 0.316 µM, first compound 3.16 µM
[18] = second compound 0.316 µM, first compound 10 µM
[19] = second compound 1 µM, first compound 0.0316 µM
[20] = second compound 1 µM, first compound 0.1 µM
[21] = second compound 1 µM, first compound 0.316 µM
[22] = second compound 1 µM, first compound 1 µM
[23] = second compound 1 µM, first compound 3.16 µM
[24] = second compound 1 µM, first compound 10 µM
[25] = second compound 3.16 µM, first compound 0.0316 µM
[26] = second compound 3.16 µM, first compound 0.1 µM
[27] = second compound 3.16 µM, first compound 0.316 µM
[28] = second compound 3.16 µM, first compound 1 µM
[29] = second compound 3.16 µM, first compound 3.16 µM
[30] = second compound 3.16 µM, first compound 10 µM
[31] = second compound 10 µM, first compound 0.0316 µM
[32] = second compound 10 µM, first compound 0.1 µM
[33] = second compound 10 µM, first compound 0.316 µM
[34] = second compound 10 µM, first compound 1 µM
[35] = second compound 10 µM, first compound 3.16 µM
[36] = second compound 10 µM, first compound 10 µM
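Further: spheroids exposed to compounds for seven days before readout.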

- IC50 (second compound 0.0316 µM): > 10 µM
- IC50 (second compound 0.1 µM): > 10 µM
- IC50 (second compound 0.316 µM): > 10 µM
- IC50 (second compound 1 µM): > 10 µM
- IC50 (second compound 3.16 µM): < 0.0316 µM
- IC50 (second compound 10 µM): < 0.0316 µM
Structure (SMILES): C#Cc1c(F)ccc2cc(O)cc(-c3ncc4c(N5CC6CCC(C5)N6)nc(OCC56CCCN5CC(F)C6)nc4c3F)c12 (stereo unspecified) + Cc1cnc(CNC(=O)c2c(=O)c3ccc(N4CCCN(C)CC4)nc3n3c2sc2ccccc23)cn1
- viability, T/C [1]: 103%
- viability, T/C [2]: 94.4%
- viability, T/C [3]: 87.1%
- viability, T/C [4]: 73.2%
- viability, T/C [5]: 76.9%
- viability, T/C [6]: 65.4%
- viability, T/C [7]: 110%
- viability, T/C [8]: 69.8%
- viability, T/C [9]: 85%
- viability, T/C [10]: 71.5%
- viability, T/C [11]: 71.4%
- viability, T/C [12]: 58.7%
- viability, T/C [13]: 82.5%
- viability, T/C [14]: 78.9%
- viability, T/C [15]: 51.1%
- viability, T/C [16]: 65.7%
- viability, T/C [17]: 63.2%
- viability, T/C [18]: 52.2%
- viability, T/C [19]: 79.8%
- viability, T/C [20]: 52.5%
- viability, T/C [21]: 61.8%
- viability, T/C [22]: 60.4%
- viability, T/C [23]: 65%
- viability, T/C [24]: 46.6%
- viability, T/C [25]: 37.6%
- viability, T/C [26]: 51.7%
- viability, T/C [27]: 47.2%
- viability, T/C [28]: 33.4%
- viability, T/C [29]: 47%
- viability, T/C [30]: 30.4%
- viability, T/C [31]: 22.1%
- viability, T/C [32]: 29.2%
- viability, T/C [33]: 41.9%
- viability, T/C [34]: 31.3%
- viability, T/C [35]: 29.9%
- viability, T/C [36]: 0.83%

- IC50 (second compound 0.0316 µM): > 10 µM
- IC50 (second compound 0.1 µM): > 10 µM
- IC50 (second compound 0.316 µM): > 10 µM
- IC50 (second compound 1 µM): > 10 µM
- IC50 (second compound 3.16 µM): < 0.0316 µM
- IC50 (second compound 10 µM): < 0.0316 µM
Structure (SMILES): CC(=O)O[C@H]1C(=O)[C@@]2(C)[C@H]([C@H](OC(=O)c3ccccc3)[C@]3(O)C[C@H](OC(=O)[C@H](O)[C@@H](NC(=O)c4ccccc4)c4ccccc4)C(C)=C1C3(C)C)[C@]1(OC(C)=O)CO[C@@H]1C[C@@H]2O + Cc1cnc(CNC(=O)c2c(=O)c3ccc(N4CCCN(C)CC4)nc3n3c2sc2ccccc23)cn1
- viability, T/C [1]: 102%
- viability, T/C [2]: 84.2%
- viability, T/C [3]: 85.5%
- viability, T/C [4]: 63.7%
- viability, T/C [5]: 65%
- viability, T/C [6]: 54.4%
- viability, T/C [7]: 90.5%
- viability, T/C [8]: 82.6%
- viability, T/C [9]: 91.5%
- viability, T/C [10]: 57.8%
- viability, T/C [11]: 71.8%
- viability, T/C [12]: 66.2%
- viability, T/C [13]: 80.4%
- viability, T/C [14]: 76.3%
- viability, T/C [15]: 62.3%
- viability, T/C [16]: 62%
- viability, T/C [17]: 65.7%
- viability, T/C [18]: 71.3%
- viability, T/C [19]: 65.3%
- viability, T/C [20]: 67.5%
- viability, T/C [21]: 65.9%
- viability, T/C [22]: 51.3%
- viability, T/C [23]: 76.5%
- viability, T/C [24]: 59.5%
- viability, T/C [25]: 40.7%
- viability, T/C [26]: 43.6%
- viability, T/C [27]: 56.9%
- viability, T/C [28]: 44.3%
- viability, T/C [29]: 60.4%
- viability, T/C [30]: 58%
- viability, T/C [31]: 30.6%
- viability, T/C [32]: 30%
- viability, T/C [33]: 43.5%
- viability, T/C [34]: 43.6%
- viability, T/C [35]: 44.2%
- viability, T/C [36]: 24.8%

- IC50 (second compound 0.0316 µM): 8.41 µM
- IC50 (second compound 0.1 µM): > 10 µM
- IC50 (second compound 0.316 µM): > 10 µM
- IC50 (second compound 1 µM): 6.32 µM
- IC50 (second compound 3.16 µM): 3.27 µM
- IC50 (second compound 10 µM): < 0.0316 µM
Structure (SMILES): CCCS(=O)(=O)Nc1ccc(F)c(C(=O)c2c[nH]c3ncc(-c4ccc(Cl)cc4)cc23)c1F + Cc1cnc(CNC(=O)c2c(=O)c3ccc(N4CCCN(C)CC4)nc3n3c2sc2ccccc23)cn1
- viability, T/C [1]: 101%
- viability, T/C [2]: 93.9%
- viability, T/C [3]: 107%
- viability, T/C [4]: 96%
- viability, T/C [5]: 110%
- viability, T/C [6]: 40.9%
- viability, T/C [7]: 105%
- viability, T/C [8]: 70.4%
- viability, T/C [9]: 78.9%
- viability, T/C [10]: 82.4%
- viability, T/C [11]: 98.1%
- viability, T/C [12]: 52.8%
- viability, T/C [13]: 85%
- viability, T/C [14]: 64.3%
- viability, T/C [15]: 82.9%
- viability, T/C [16]: 91.3%
- viability, T/C [17]: 101%
- viability, T/C [18]: 55.1%
- viability, T/C [19]: 64.3%
- viability, T/C [20]: 76.5%
- viability, T/C [21]: 74.1%
- viability, T/C [22]: 67.3%
- viability, T/C [23]: 96.4%
- viability, T/C [24]: 33%
- viability, T/C [25]: 43.9%
- viability, T/C [26]: 42.7%
- viability, T/C [27]: 55.2%
- viability, T/C [28]: 63.4%
- viability, T/C [29]: 52.7%
- viability, T/C [30]: 0.43%
- viability, T/C [31]: 32.7%
- viability, T/C [32]: 34.5%
- viability, T/C [33]: 38.7%
- viability, T/C [34]: 34.6%
- viability, T/C [35]: 22.8%
- viability, T/C [36]: 0.26%
